This is an account of results in patent publication US20040063662A1, “Selenophene anti-tumor agents” (priority 1996, published 2004).

The nature of series [1]: Selective cytotoxicity microculture assay, human renal carcinoma. The settings on record: human, SCI (selectively cytotoxicity index), GI50 (RPTEC)/GI50 (A-498).
Series [2] relates to human renal carcinoma cells (A-498). The series is described as above.
For series [3], the system named is normal human renal cells (RPTEC). Nature of the series: Selective cytotoxicity microculture assay, normal human renal cells. Format: cell-based.
In series [4] the target is T1, 50:50 mixture of recombinant mouse PKCα and mouse PKCβ2.
T1 construct: The enzymes are expressed in Sf9 insect cells from recombinant baculovirus and partially purified on DEAE-cellulose and Sephacryl 200 gel filtration
The series can be described thus: Protein Kinase C (PKC) screening assay. In kind it is biochemical. The settings on record: Inhibition of Protein Kinase C. From the text:
The Protein Kinase C (PKC) screening assay utilized in the following experiments is similar to standard PKC assays used by many investigators. Its primary features are that 1) the assay utilizes a 50:50 mixture of recombinant mouse PKCα and mouse PKCβ2; 2) employs histone as phosphate-accepting substrate; and 3) the PKC enzymatic activity is activated with phosphatidylserine, TPA and low concentration of calcium, so that both calcium and TPA are somewhat limiting for the extent of activation. In this manner the assay is sensitive to inhibitors of PKC activation. A more detailed description of the assay is provided in the following paragraphs.
The recombinant PKC formulation is a mixture (equal parts by activity) of mouse PKCα and mouse PKCβ2. The enzymes are expressed in Sf9 insect cells from recombinant baculovirus and partially purified on DEAE-cellulose and Sephacryl 200 gel filtration. Sufficient PKC is added to each reaction to provide approximately 4 pmols phosphate transferred in 30 minute (per total reaction.) The reaction is linear over the time when 4 pmols of phosphate is transferred and the reaction remains linear well beyond this time frame.
The PKC screening assay is performed in 96 well polystyrene U bottom micro titer plates, in a total reaction volume of 50 ul. Solution manipulations are performed during the assay utilize a Rainin, motorized EDP-plus M8 eight-channel micropipettor.
In some cases 50% DMSO:water, water, or methanol is substituted (if essential) for the solvent. At least 25 μl of the highest concentration sample to be assayed is transferred to a well in a 96 well U-bottom polystyrene assay plate. Serial 5-fold or 10-fold dilutions (depending on the dose-range desired) are made using the EDP-plus M8 eight-channel pipettor in dilute mode and mixing by repipetting. Using the 8-channel pipettor, 2 μl of each dilution is transferred to the appropriate wells of the plate(s) to be used for each assay. Duplicate assays are performed for each dose, with each assay, allowing six wells (half the row) for three-dose assays, or 12 wells (the whole row) for six-dose assays. In general, extracts and fractions are assayed at three doses: 400, 40 an 4 ug/ml, while pure compounds are tested at six doses: 400, 80, 16, 3.2, 0.64, 0.128 ([…]).

For series [5], the system named is ras-transformed human bronchial epithelial cells (TBE). The series can be described thus: Selective cytotoxicity microculture assay, ras-transformed bronchial epithelial cells. In kind it is cell-based.
[6] abbreviates: Homo sapiens, A498, A-498 human renal carcinoma.
The mark [7] stands for this setting: Homo sapiens, Epithelial cell, read-out: GI50.

≈ marks a conversion by molar mass, not a printed value. Where “and” joins values, the source holds several entries; their conditions need not be identical. Equal entries are not always repeated. Where two headings read alike, the source gives them in different places.

The term GI50 denotes the concentration at which growth is held to half of that of the control. What is called IC50 is the concentration that inhibits the measured activity by half. `OCc1ccc(-c2ccc(-c3ccc(CO)[se]3)s2)[se]1` [compound 676632]: the selectivity ratio in series [1] was more than 1000. The GI50 in series [2] (A-498 human renal carcinoma) is 0.0002 ng/mL (≈ 0.000497 nM); in series [2] (setting [6]), 0.0003 ng/mL (≈ 0.000746 nM); in series [3], 2 ng/mL and 0.3 ng/mL. Further, the IC50 in series [4] amounted to 50 µg/mL (≈ 124000 nM).

On to `OCc1ccc(-c2ccc(-c3ccc[se]3)s2)[se]1` [compound 676631], for which the IC50 in series [4] is recorded as 2 × 10^0 μg/ml.

As for `OCc1ccc(-c2ccc(-c3ccc(CO)[se]3)[se]2)[se]1` [compound 675247], the selectivity ratio in series [1] was more than 1000. The IC50 in series [4] was found to be 10 µg/mL (≈ 22300 nM). The GI50 is 20000 ng/mL (≈ 44500 nM) in series [5] and 30000 ng/mL (≈ 66800 nM) in series [5] (setting [7]).

Regarding `OCc1ccc(-c2ccc(-c3ccc(CO)s3)[se]2)s1` [compound 675343], the IC50 in series [4] worked out at 30 µg/mL (≈ 84400 nM).

For the compound `OCc1ccc(-c2ccc(-c3ccc[se]3)[se]2)[se]1` [compound 675246], the selectivity ratio in series [1] was more than 1000. For the same compound, the GI50 is 0.003 ng/mL (≈ 0.00716 nM) in series [2] (setting [6]), 2 ng/mL (≈ 4.77 nM) in series [5] and 3 ng/mL (≈ 7.16 nM) in series [5] (setting [7]). Further, the IC50 in series [4] is reported as 3 × 10^0 μg/ml.
